Laboratory results published in ChEMBL document CHEMBL6083254, “Optimization of B-Ring-Functionalized Antimalarial Tambjamines and Prodiginines” (J Med Chem, 2024).
Active and inactive are the calls of the source. No cut-off for these calls is given here.

Tests used:
[1] = tested on: Plasmodium falciparum; experiment: microbe, parasite or virus in culture; settings: D6, 72 h
[2] = in vitro; settings: human
Description: Selectivity index, ratio of IC50 for cytotoxicity against human HepG2 cells assessed as cell viability to IC50 for antiplasmodial activity against asexual erythrocytic stage of Plasmodium falciparum D6 assessed as inhibition of parasitic growth incubated

[3] = tested on: Plasmodium falciparum; experiment: microbe, parasite or virus in culture; settings: Tm90-C2B, 72 h
[4] = tested on: HepG2; experiment: Cytotoxicity against human HepG2 cells assessed as cell viability incubated for 72 hrs by MTT assay; assay type: toxicity, cell-based; settings: hepg2
[5] = tested on: Plasmodium yoelii; experiment: Antiplasmodial activity against asexual erythrocytic stage of Plasmodium yoelii infected in female CFI mouse model at 25 mg/kg, po administered once daily for 4 days and measured on day 5 by Giemsa staining based microscopic analysis; assay type: functional, organism-based; settings: time 5.0 day
[6] = tested on: Plasmodium yoelii; experiment: Antiplasmodial activity against asexual erythrocytic stage of Plasmodium yoelii infected in po dosed female CFI mouse model assessed as reduction in parasitemia administered once daily for 4 days and measured on day 5 by Giemsa staining based microscopic analysis; assay type: functional; settings: 120 h, time 5 day
[7] = tested on: Plasmodium falciparum; experiment: microbe, parasite or virus in culture; settings: Dd2, 72 h
[8] = tested on: Plasmodium yoelii; experiment: Antiplasmodial activity against asexual erythrocytic stage of Plasmodium yoelii infected in female CFI mouse model assessed as reduction in parasitemia at 1 mg/kg, po administered once daily for 4 days and measured on day 5 by Giemsa staining based microscopic analysis relative to control; assay type: functional; parameters: scale not given: the % may be the effect or the level left
[9] = tested on: Plasmodium yoelii; experiment: Antiplasmodial activity against asexual erythrocytic stage of Plasmodium yoelii infected in female CFI mouse model assessed as reduction in parasitemia at 10 mg/kg, po administered once daily for 4 days and measured on day 5 by Giemsa staining based microscopic analysis relative to control; assay type: functional; parameters: scale not given: the % may be the effect or the level left
[10] = tested on: Plasmodium yoelii; experiment: Antiplasmodial activity against asexual erythrocytic stage of Plasmodium yoelii infected in female CFI mouse model assessed as reduction in parasitemia at 25 mg/kg, po administered once daily for 4 days and measured on day 5 by Giemsa staining based microscopic analysis relative to control; assay type: functional; parameters: scale not given: the % may be the effect or the level left; settings: time 5 day
[11] = tested on: Plasmodium yoelii; experiment: Antiplasmodial activity against asexual erythrocytic stage of Plasmodium yoelii infected in female CFI mouse model assessed as reduction in parasitemia at 3 mg/kg, po administered once daily for 4 days and measured on day 5 by Giemsa staining based microscopic analysis relative to control; assay type: functional
[12] = Metabolic stability in mouse liver microsomes assessed as half life measured upto 60 mins LC-MS analysis
[13] = Metabolic stability in human liver microsomes assessed as half life measured upto 60 mins LC-MS analysis
[14] = Metabolic stability in human liver microsomes assessed as intrinsic clearance measured upto 60 mins LC-MS analysis
[15] = Metabolic stability in mouse liver microsomes assessed as intrinsic clearance measured upto 60 mins LC-MS analysis
[16] = Aqueous solubility of compound in PBS buffer at pH 7.4 incubated for 90 mins by UV-vis spectroscopic analysis; settings: pH 7.4, 1.5 h

Row | Compound | IC50 [1] [nM] | selectivity ratio [2] | IC50 [3] [nM] | IC50 [4] [µM] | Activity [5] | ED50 ([6]; Plasmodium yoelii, po, read-out: ED50) [mg/kg/day] | ED50 [6] [mg/kg/day] | IC50 [7] [nM] | Activity ([8]; time 5 day) [%] | Activity ([9]; time 5 day) [%] | Activity [10] [%] | Activity ([11]; time 5.0 day) | Activity ([8]; time 5.0 day) | Activity ([9]; time 5.0 day) | half-life at 1 h [12] [min] | half-life at 1 h [13] [min] | Activity ([11]; time 5 day) [%] | microsomal CLint at 1 h [14] [µL/min/mg] | microsomal CLint at 1 h [15] [µL/min/mg] | solubility [16] [µM]
1 | CCCCCc1cc(/C=C2\N=C(c3ccc[nH]3)C=C2Oc2ccc(Cl)cc2)[nH]c1C.Cl | 7.89 | 1210 | 10 | 9.57 | Active | 1.15 | 1.25 | 7.03 | 5.01 | 100 |  |  |  |  |  |  |  |  |  | 
2 | CCCCCc1cc(/C=C2\N=C(c3ccc[nH]3)C=C2OCc2ccc(OC(F)(F)F)cc2)[nH]c1C.Cl | 7.24 | 900 | 12.5 | 6.52 | inactive |  |  | 7.97 |  |  | 100 | inactive | inactive | inactive |  |  |  |  |  | 
3 | CCCCCc1cc(/C=C2\N=C(c3ccc[nH]3)C=C2OCc2ccccc2)[nH]c1C.Cl | 7.91 | 896 | 9.73 | 7.09 |  |  |  | 4.25 | 16.8 | 86.9 | 100 |  |  |  | > 60 | > 60 | 43.3 | 3.89 | 7.33 | < 3.125
4 | CCCCCCCCCCCc1ccc(/C=C2\N=C(c3ccc[nH]3)C=C2OCCC)[nH]1.Cl | 6.71 | 2810 | 8.01 | 18.9 | inactive |  |  | 7.56 |  |  | 100 | inactive | inactive | inactive |  |  |  |  |  | 
5 | CCCCCCCCCCCc1ccc(/C=C2\N=C(c3ccc[nH]3)C=C2OC(C)C)[nH]1.Cl | 26.9 | 3240 | 35.6 | 87.3 | inactive |  |  | 18.2 |  |  | 100 | inactive | inactive | inactive |  |  |  |  |  | 
6 | C1=C(Oc2ccccc2)/C(=C/NC23CC4CC(CC(C4)C2)C3)N=C1c1ccc[nH]1.Cl | 25.9 | 331 | 17.7 | 8.57 |  |  |  | 22 |  |  | >99 |  |  |  | > 60 | 34.7 |  | 40 | 18.9 | 7.88
7 | C1=C(OCc2ccccc2)/C(=C/NC23CC4CC(CC(C4)C2)C3)N=C1c1ccc[nH]1.Cl | 6.45 | 171 | 5.25 | 1.1 |  |  |  | 7.49 |  |  | 63 |  |  |  | > 60 | 19.3 |  | 71.7 | 17.8 | 5.91
8 | CCCCCc1cc(/C=C2\N=C(c3ccc[nH]3)C=C2OCc2ccc(Cl)cc2)[nH]c1C.Cl | 7.13 | 1480 | 8.73 | 10.5 |  |  |  | 4.44 |  |  | 97.1 | inactive | inactive | inactive |  |  |  |  |  | 
9 | CC(C)OC1=CC(c2ccc[nH]2)=N/C1=C\NC1CCCCCC1.Cl | 3.51 | 1020 | 5.42 | 3.58 |  |  |  | 3.82 |  |  | 43.6 |  |  |  | 18 | 12.2 |  | 114 | 76.8 | 157
10 | CC(C)OC1=CC(c2ccc[nH]2)=N/C1=C\NC12CC3CC(CC(C3)C1)C2.Cl | 1.78 | 715 | 2.05 | 1.27 |  |  |  | 2 |  |  | 74.1 |  |  |  | 30.9 | 14.2 |  | 97.6 | 44.8 | 78
11 | CCCCCCCCCCCc1ccc(/C=C2\N=C(c3ccc[nH]3)C=C2OCC)[nH]1.Cl | 4.41 | 4750 | 4.02 | 21 | inactive |  |  | 3.45 |  |  | 100 | inactive | inactive | inactive | 41.9 | > 60 |  | 19.1 | 33.1 | < 3.125
12 | CCN(CC)CCCC(C)Nc1ccnc2cc(Cl)ccc12 (stereo not drawn) [CHLOROQUINE] |  |  |  |  | inactive |  |  |  |  |  | 100 | inactive | inactive | inactive |  |  |  |  |  | 
13 | C1=C(OCc2ccccc2)/C(=C/NC2CCCCCC2)N=C1c1ccc[nH]1.Cl | 19 | 194 | 21.3 | 3.68 |  |  |  | 17.3 |  |  | 59.5 |  |  |  | > 60 | 16.3 |  | 85.1 | 16 | 15.8
14 | CCCOC1=CC(c2ccc[nH]2)=N/C1=C\NC12CC3CC(CC(C3)C1)C2.Cl | 1.17 | 2140 | 1.61 | 2.51 |  |  |  | 1.45 |  |  | 81.8 |  |  |  | 43.5 | 32 |  | 42.8 | 31.8 | 52.2
15 | CCCCCCCCCCCc1ccc(/C=C2\N=C(c3ccc[nH]3)C=C2OCc2ccccc2)[nH]1.Cl |  | 2020 | 22.4 | 53.6 |  |  |  | 26.4 |  |  | 62.3 | inactive | inactive | inactive | > 60 | > 60 |  | 7.29 | 4.03 | < 3.125
16 | CCOC1=CC(c2ccc[nH]2)=N/C1=C\NC12CC3CC(CC(C3)C1)C2.Cl | 0.497 | 2150 | 0.715 | 1.07 |  |  |  | 0.77 |  |  | 24 |  |  |  | 32.7 | 17.7 |  | 78.3 | 42.4 | 115
